The source of these data is ChEMBL document CHEMBL1130464, “Analogues of trichosatin a and trapoxin B as histone deacetylase inhibitors” (Bioorg Med Chem Lett, 1997).

In assay [1] the target is T1, Histone deacetylase HD2 (Zea mays) (UniProt Q94F81).
T1 sequence (whole entry): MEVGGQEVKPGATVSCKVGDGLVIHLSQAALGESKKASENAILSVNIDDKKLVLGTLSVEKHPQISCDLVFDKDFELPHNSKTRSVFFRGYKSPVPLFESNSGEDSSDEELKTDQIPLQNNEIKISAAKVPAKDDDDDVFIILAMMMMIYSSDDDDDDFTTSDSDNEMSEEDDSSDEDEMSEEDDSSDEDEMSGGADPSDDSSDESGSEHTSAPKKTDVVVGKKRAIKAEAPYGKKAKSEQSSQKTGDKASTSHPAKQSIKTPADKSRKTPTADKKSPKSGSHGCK
The assay can be described thus: Inhibitory concentration against deacetylase HD2 enzyme of maize at 30 uM.

The target of assay [2] is T1, Histone deacetylase HD2 (Zea mays).

A word on the inhibition: it is the share of the control response that was lost under treatment. A lower inhibition goes with little suppression. The IC90 is the point of the concentration-response curve where the effect stands at 90%.

For the compound `CN(C)c1ccc(C(=O)NCCCCCC(=O)NO)cc1`, in assay [1], the inhibition worked out at 94%.

In assay [2], `CC(/C=C/C(=O)NO)=C\[C@@H](C)C(=O)c1ccc(N(C)C)cc1` displayed an IC90 of 100 nM.

Regarding `O=C(CCCCCCC(=O)N[C@@H](Cc1ccccc1)C(=O)O)NO`, the inhibition in assay [1] is 82%.

On to `COC(=O)[C@H](Cc1ccccc1)NC(=O)CCCCCCC(=O)NO`, for which the inhibition in assay [1] came out at 76%.
